Data published in US8895509B2, “MIR-200 family induces mesenchymal-to-epithelial transition (MET) in ovarian cancer cells” (Georgia Tech Research Corporation, priority 2010, dated 2014).

Tested on: HEY cells
Test: microarray profiling (Affymetrix HG-U133 Plus 2.0) of miR-429 transfected HEY cells
Assay type: cell-based, human
Settings: for Fold-change: miR-429 transfected HEY cells
Description: 6×10^4 cells per well were seeded in 24-well plates. After 24 h, cells were transfected with 30 nM of miR-429 and miR-320 miRNA oligonucleotides (Ambion, Austin, Tex.) using Lipofectamine 2000 reagent (Invitrogen, Carlsbad, Calif.). The Ambion Pre-miRNA Precursor Negative Control was used as a control. Three days after transfection, cells were split and transfected again. This process was repeated every 3 days until 21 days when cells were assayed for response.
Microarray analyses were performed using the Affymetrix system (HG-U133 Plus 2.0; Santa Clara, Calif.) as previously described [Bowen et al., BMC Med Genomics 2009, 2:71]. Briefly, the expression data were analyzed using MAS 5.0 Statistical Algorithm encoded in the Affymetrix Expression Console application. The expression values were normalized across samples by Z-score calculation using Spotfire Decision Site software. […] Gene enrichment analyses were carried out using GeneGO (http://www.genego.com/) gene ontology software.

[1] = miR-429 transfected cells vs controls, p<0.015, fold change 1.5

miR-429: miR-200 family member; mature miRNA UAAUACUGUCUGGUAAAACCGU (SEQ ID NO: 6); miRNA oligonucleotide (Ambion) transfected at 30 nM (listed as RNA, chemistry not given here; listed as Homo sapiens) [miR-200 family member; miRNA oligonucleotide (Ambion) transfected at 30 nM]
Fold change (miR-429 transfected HEY cells relative to negative controls) (gene LMO4): −3.14
Fold change (miR-429 transfected HEY cells relative to negative controls) (gene LOC148189): −2.69
Fold change (miR-429 transfected HEY cells relative to negative controls) (gene LOC148987): −3.07
Fold change (miR-429 transfected HEY cells relative to negative controls) (gene LOC158381): −7.31
Fold change (miR-429 transfected HEY cells relative to negative controls) (gene LOC284561): −38.32
Fold change (miR-429 transfected HEY cells relative to negative controls) (gene LOC286178): −10.56
Fold-change (gene LOC339290): −1.87
Fold change (miR-429 transfected HEY cells relative to negative controls) (gene LOC401497): −9.19
Fold change (miR-429 transfected HEY cells relative to negative controls) (gene LOC439949): −2.48
Fold change (miR-429 transfected HEY cells relative to negative controls) (gene LRP4): −2.66
Fold change (miR-429 transfected HEY cells relative to negative controls) (gene MARS): −6.59
Fold change (miR-429 transfected HEY cells relative to negative controls) (gene MARS2): −2.50
Fold change (miR-429 transfected HEY cells relative to negative controls) (gene MERTK): −3.03
Fold change (miR-429 transfected HEY cells relative to negative controls) (gene MGC16121): −3.46
Fold change (miR-429 transfected HEY cells relative to negative controls) (gene MRAP): −3.05
Fold change (miR-429 transfected HEY cells relative to negative controls) (gene NAV3): −4.35
Fold change (miR-429 transfected HEY cells relative to negative controls) (gene NOC2L): −26.91
Fold change (miR-429 transfected HEY cells relative to negative controls) (gene OSTM1): −4.35
Fold change (miR-429 transfected HEY cells relative to negative controls) (gene PAPPA2): −23.75
Fold change (miR-429 transfected HEY cells relative to negative controls) (gene PCK2): −4.44
Fold change (miR-429 transfected HEY cells relative to negative controls) (gene PCOTH): −13.93
Fold change (miR-429 transfected HEY cells relative to negative controls) (gene PHGDH): −3.78
Fold change (miR-429 transfected HEY cells relative to negative controls) (gene PITX2): −2.45
Fold-change (gene PRTG): −1.61
Fold change (miR-429 transfected HEY cells relative to negative controls) (gene PSAT1): −6.92
Fold change (miR-429 transfected HEY cells relative to negative controls) (gene PTPN13): −3.10
Fold change (miR-429 transfected HEY cells relative to negative controls) (gene PYGO1): −3.61
Fold-change (gene RDH10): −2.08
Fold change (miR-429 transfected HEY cells relative to negative controls) (gene RGMB): −2.89
Fold change (miR-429 transfected HEY cells relative to negative controls) (gene RPL22L1): −2.45
Fold-change (gene SENP5): −1.80
Fold change (miR-429 transfected HEY cells relative to negative controls) (gene SESN2): −3.61
Fold change (miR-429 transfected HEY cells relative to negative controls) (gene SGSH): −2.57
Fold change (miR-429 transfected HEY cells relative to negative controls) (gene SH3PXD2B): −5.13
Fold change (miR-429 transfected HEY cells relative to negative controls) (gene SHANK2): −10.85
Fold-change (gene SHMT2): −2.04
Fold change (miR-429 transfected HEY cells relative to negative controls) (gene SLC1A4): −4.32
Fold change (miR-429 transfected HEY cells relative to negative controls) (gene SLC1A5): −3.01
Fold change (miR-429 transfected HEY cells relative to negative controls) (gene SLC7A11): −5.46
Fold change (miR-429 transfected HEY cells relative to negative controls) (gene SLC24A3): −10.20
Fold change (miR-429 transfected HEY cells relative to negative controls) (gene SLC27A4): −6.23
Fold change (miR-429 transfected HEY cells relative to negative controls) (gene SNORA68): −14.52
Fold change (miR-429 transfected HEY cells relative to negative controls) (gene SRCAP): −2.43
Fold-change (gene STARD13): −1.78
Fold change (miR-429 transfected HEY cells relative to negative controls) (gene SYF2): −12.64
Fold change (miR-429 transfected HEY cells relative to negative controls) (gene SYT11): −2.66
Fold-change (gene TIGD1): −2.38
Fold change (miR-429 transfected HEY cells relative to negative controls) (gene TLR1): −15.24
Fold change (miR-429 transfected HEY cells relative to negative controls) (gene TMEM156): −2.79
Fold change (miR-429 transfected HEY cells relative to negative controls) (gene TMEM201): −5.58
Fold-change (gene TSGA14): −2.33
change in expression by microarray (gene TSPAN13 (epithelial marker)): up-regulated
Fold-change (gene WDR43): −1.88
Fold change (miR-429 transfected HEY cells relative to negative controls) (gene YARS): −2.45
Fold-change (gene ZBTB24): −1.87
change in expression by microarray (gene ZEB2): did not display a significant change in expression
Fold change (miR-429 transfected HEY cells relative to negative controls) (gene ZNF30): −2.62
Fold-change (gene ZNF697): −1.91
Fold change (miR-429 transfected HEY cells relative to negative controls) (gene hCG_1654703): −7.46
number of genes significantly down regulated [1]: 296 genes
number of genes significantly up regulated [1]: 373 genes
number of genes displaying significant changes in expression (miR-429 transfected cells vs negative control): 669 genes
